From US12637472B2, “Benzimidazole heteroatom-containing spiro compound and medicinal use thereof” (Changzhi University, priority 2023, dated 2026)

What was measured:
Assay type in all cases: cell-based
[1] = test system: Human liver tumor cells HepG2; test: MTT in vitro cell proliferation inhibition experiment, HepG2; details: Homo sapiens, MTT method, 48 h contact between compound and cell, read-out: Antiproliferative activity (IC50, μM) HepG2
Procedure: (§1) Human liver tumor cells HepG2, human colon cancer cells HCT116, and human gastric adenocarcinoma cells AGS were purchased from the Institute of Basic Medical Sciences, Chinese Academy of Medical Sciences. The cells each were preserved and passaged in the laboratory of the present disclosure according to respective cultivation data. Each cell line was routinely inoculated in a 50 mL cell culture flask, and cultivated with a 10% fetal bovine serum-containing DMEM/IRP-1640 medium at 37° C., 5% CO2, and 100% humidity, where the medium was changed daily. When growing to a confluency of 80% to 90%, cells were digested with a mixture of trypsin and EDTA and passaged according to 1:3.
(§2) An in vitro cell activity and proliferation inhibition experiment was conducted by an MTT method to investigate an impact of a target compound on a survival activity of each cell. Cells at a logarithmic growth phase were inoculated at 5×10^3 cells (100 μL)/well in a 96-well culture plate and cultivated for 24 h, and then compound solutions with different concentrations prepared in advance were added (100 μL) to the plate. At least 3 replicate wells were set for each concentration. A solvent control group without a compound and a blank control group without a cell were set. Edge wells each were filled with 200 μL of sterilized water. […] A liquid in each well was completely removed carefully, 150 μL of DMSO was added to each well, the plate was gently shaken on a microshaker for 10 min to make a purple crystal fully dissolved, and then an absorbance value was determined at 570 nm by a microplate reader. With a cell viability of the solvent control group without a compound as 100%, a cell survival rate was calculated as follows: a cell survival rate=(an absorbance value of a compound group−an absorbance value of the blank control group)/(an absorbance value of the control group−an absorbance value of the blank control group)×100%. A half-maximal inhibitory concentration (IC50) of a compound for a cell was calculated by the Graphpad Prism 5 software.

[2] = test system: human gastric adenocarcinoma cells AGS; test: MTT in vitro cell proliferation inhibition experiment, AGS; details: Homo sapiens, MTT method, 48 h contact between compound and cell, read-out: Antiproliferative activity (IC50, μM) AGS
Procedure: as §1, §2

[3] = test system: human colon cancer cells HCT116; test: MTT in vitro cell proliferation inhibition experiment, HCT116; details: Homo sapiens, HCT-116, MTT method, 48 h contact between compound and cell, read-out: Antiproliferative activity (IC50, μM) HCT116
Procedure: as §1, §2

| IC50 [1] [µM] | IC50 [2] [µM] | IC50 [3] [µM] | SMILES |
| --- | --- | --- | --- |
| > 100 | 42.7 | 14.1 | Cc1ccc(C2C(CC(C)C)NC3(C(=O)c4ccccc4C3=O)C2C(=O)c2nc3ccccc3[nH]2)cc1 (stereo not drawn) [Compound 12, 3-(1H-benzimidazol-2-carbonyl)-5-isobutyl-4-p-tolylspiro[inden-2,2′-pyrrolidine]-1,3-dione] |
| > 100 | > 100 | > 100 | CCOc1ccc(C2C(CC(C)C)NC3(C(=O)c4ccccc4C3=O)C2C(=O)c2nc3ccccc3[nH]2)cc1OCC (stereo not drawn) [Compound 13] |
| 11.7 | 7.92 | 5.88 | CC(C)CC1NC2(C(=O)c3ccccc3C2=O)C(C(=O)c2nc3ccccc3[nH]2)C1c1cccc(Br)c1 (stereo not drawn) [Compound 14, 3-(1H-benzimidazol-2-carbonyl)-4-(3-bromophenyl)-5-isobutylspiro[inden-2,2′-pyrrolidine]-1,3-dione] |
| > 100 | 85.7 | 28.8 | CCOc1ccc(C2C(CC(C)C)NC3(C(=O)c4ccccc4C3=O)C2C(=O)c2nc3ccccc3[nH]2)cc1 (stereo not drawn) [Compound 15, 3-(1H-benzimidazol-2-carbonyl)-4-(4-ethoxyphenyl)-5-isobutylspiro[inden-2,2′-pyrrolidine]-1,3-dione] |
| 49.7 | 20.9 | 10.8 | CC(C)CC1NC2(C(=O)c3ccccc3C2=O)C(C(=O)c2nc3ccccc3[nH]2)C1c1ccc(Br)cc1 (stereo not drawn) [Compound 16, 3-(1H-benzimidazol-2-carbonyl)-4-(4-bromophenyl)-5-isobutylspiro[inden-2,2′-pyrrolidine]-1,3-dione] |
| 16.2 | 14.7 | 11.1 | CCC(C)C1NC2(C(=O)c3ccccc3C2=O)C(C(=O)c2nc3ccccc3[nH]2)C1C1CCCCC1 (stereo not drawn) [Compound 17, 3-(1H-benzimidazol-2-carbonyl)-5-sec-butyl-4-cyclohexylspiro[inden-2,2′-pyrrolidine]-1,3-dione] |
| > 100 | > 100 | > 100 | CCC(C)C1NC2(C(=O)c3ccccc3C2=O)C(C(=O)c2nc3ccccc3[nH]2)C1c1ccc(Cl)c(F)c1 (stereo not drawn) [Compound 18, 3-(1H-benzimidazol-2-carbonyl)-5-sec-butyl-4-(3-fluoro-4-chlorophenyl)spiro[inden-2,2′-pyrrolidine]-1,3-dione] |
| > 100 | 87.5 | 42.1 | CCC(C)C1NC2(C(=O)c3ccccc3C2=O)C(C(=O)c2nc3ccccc3[nH]2)C1c1ccc(Cl)cc1 (stereo not drawn) [Compound 19, 3-(1H-benzimidazol-2-carbonyl)-5-sec-butyl-4-(4-chlorophenyl)spiro[inden-2,2′-pyrrolidine]-1,3-dione] |
| > 100 | 94 | 51.3 | CCC(C)C1NC2(C(=O)c3ccccc3C2=O)C(C(=O)c2nc3ccccc3[nH]2)C1c1ccc(C)cc1 (stereo not drawn) [Compound 20, 3-(1H-benzimidazol-2-carbonyl)-5-sec-butyl-4-p-tolylspiro[inden-2,2′-pyrrolidine]-1,3-dione] |
| 41.3 | 33.8 | 35.5 | CCOc1ccc(C2C(C(C)CC)NC3(C(=O)c4ccccc4C3=O)C2C(=O)c2nc3ccccc3[nH]2)cc1OCC (stereo not drawn) [Compound 21] |
| 3.45 | 4.78 | 5.67 | CCC(C)C1NC2(C(=O)c3ccccc3C2=O)C(C(=O)c2nc3ccccc3[nH]2)C1c1cccc(Br)c1 (stereo not drawn) [Compound 22, 3-benzimidazol-2-carbonyl-4-(3-bromophenyl)-5-sec-butylspiro[inden-2,2′-pyrrolidine]-1,3-dione] |
| 8.78 | 45.8 | 9.67 | CCOc1ccc(C2C(C(C)CC)NC3(C(=O)c4ccccc4C3=O)C2C(=O)c2nc3ccccc3[nH]2)cc1 (stereo not drawn) [Compound 23, 3-(1H-benzimidazol-2-carbonyl)-5-sec-butyl-4-(4-ethoxyphenyl)spiro[inden-2,2′-pyrrolidine]-1,3-dione] |
